According to patent US7511041B2, “Fused azole-pyrimidine derivatives” (Bayer Pharmaceuticals Corporation, priority 2002, dated 2009):
Counter-ions that a name gives are not always drawn. Like-named read-outs stand apart in the source and are kept apart here.

Columns and labels:
[1] = biological target: T1, Recombinant human PI3Kγ (full length human PI3K p110γ) (Homo sapiens, UniProt P48736); experiment: Kinase assay of PI3Kγ (solid-phase lipid kinase assay); assay type: biochemical
T1 construct: full length human PI3K p110γ fused with a His6-tag at the C-terminus; His6 (C); purchased ALEXIS BIOCHEMICALS #201-055-C010; host or cells: S. frugiperda 9 insect cells
From the text: [Determination of IC50 Values of Compounds in Kinase Assay of PI3Kγ]
Chemicals and Assay Materials
LABORATORIES (Toronto, Canada). Recombinant human PI3Kγ (full length human PI3K p110γ fused with a His6-tag at the C-terminus expressed in S. frugiperda 9 insect cells) was obtained from ALEXIS BIOCHEMICALS (#201-055-C010; San Diego, Calif.). […] BIOTECH (Buckinghamshire, UK) and ROCHE DIAGNOSTICS (Mannheim, Germany), respectively. Scintillation cocktails and MicroScint PS™ were purchased from PACKARD (Meriden, Conn.). Maxisorp™ plates were purchased from NALGE NUNC INTERNATIONAL K.K. (Tokyo, Japan). All other chemicals not further specified were from WAKO PURE CHEMICALS (Osaka, Japan).
Solid-Phase Lipid Kinase Assay
The plates were subsequently air-dried by incubation for at least 2 hours in a fume hood. The reaction was set up by mixing 25 μl/well of assay buffer 2× (100 mM MOPSO/NaOH, 0.2 M NaCl, pH 7.0, 8 mM MgCl2, 2 mg/ml BSA (fatty acid-free)) and 50 ng/well PI3Kγ in the lipid pre-coated plate and 10× test compounds were added in 2% DMSO. The reaction was started by adding 20 μl/well of ATP mix (final 10 μM ATP; 0.05 μCi/well [γ^33P]ATP). After incubation at RT for 2 hours, the reaction was terminated by adding 50 μl/well stop solution (50 mM EDTA, pH 8.0). The plate was then washed twice with Tris-buffered saline (TBS, pH 7.4). MicroScint PS™ (PACKARD) scintillation mix was added at 100 μl/well, and radioactivity was counted by using a TopCount™ (PACKARD) scintillation counter.
The inhibition percent at each concentration of compound was calculated, and IC50 values were determined from the inhibition of curve.

[2] = in vitro PI3K-γ inhibitory activity, class symbols A-D, read-out: in vitro PI3K-gamma
[3] = in vitro PI3K-γ inhibitory activity, class symbols, read-out: in vitro PI3K-gamma
[4] = Table 1, isozyme not given, read-out: in vitro

T1 sequence (P48736 whole entry, the tested form may be a part): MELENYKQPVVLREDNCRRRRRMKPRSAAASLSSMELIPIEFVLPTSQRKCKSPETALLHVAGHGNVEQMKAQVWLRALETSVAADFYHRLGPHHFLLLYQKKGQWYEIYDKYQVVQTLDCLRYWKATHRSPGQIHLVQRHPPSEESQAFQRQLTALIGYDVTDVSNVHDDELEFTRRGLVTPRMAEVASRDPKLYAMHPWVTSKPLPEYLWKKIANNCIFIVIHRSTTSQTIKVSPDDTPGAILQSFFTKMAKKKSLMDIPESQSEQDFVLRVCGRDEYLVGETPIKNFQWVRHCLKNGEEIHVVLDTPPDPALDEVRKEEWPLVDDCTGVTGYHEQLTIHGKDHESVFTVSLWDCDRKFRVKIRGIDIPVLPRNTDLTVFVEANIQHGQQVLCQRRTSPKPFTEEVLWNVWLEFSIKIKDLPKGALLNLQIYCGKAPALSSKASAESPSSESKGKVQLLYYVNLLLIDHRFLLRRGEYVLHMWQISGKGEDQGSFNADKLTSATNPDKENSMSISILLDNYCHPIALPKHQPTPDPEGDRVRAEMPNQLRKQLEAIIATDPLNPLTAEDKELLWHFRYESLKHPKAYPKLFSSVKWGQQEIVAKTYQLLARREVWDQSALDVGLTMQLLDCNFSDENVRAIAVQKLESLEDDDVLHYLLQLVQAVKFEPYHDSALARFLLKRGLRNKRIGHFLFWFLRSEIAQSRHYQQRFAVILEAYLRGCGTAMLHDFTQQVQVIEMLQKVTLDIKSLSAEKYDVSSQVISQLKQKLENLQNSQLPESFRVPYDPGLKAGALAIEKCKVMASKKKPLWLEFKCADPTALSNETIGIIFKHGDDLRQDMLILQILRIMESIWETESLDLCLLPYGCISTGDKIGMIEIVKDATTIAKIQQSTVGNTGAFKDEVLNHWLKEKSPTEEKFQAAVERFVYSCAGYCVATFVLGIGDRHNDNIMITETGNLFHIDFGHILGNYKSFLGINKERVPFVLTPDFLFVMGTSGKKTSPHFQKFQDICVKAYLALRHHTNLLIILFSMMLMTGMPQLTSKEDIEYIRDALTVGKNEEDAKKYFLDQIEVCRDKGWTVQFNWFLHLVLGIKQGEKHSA

SMILES	melting point	also measured
N#Cc1ccc(/C(O)=C/C2=Nc3ccccc3C3=NCCN23)cc1 [Example 1-172]	260 to 264 °C	IC50 [1, 4]: > 2000 nM
O/C(=C\C1=Nc2ccccc2C2=NCCN12)c1cc[nH]c1 [Example 1-151]	247 to 249 °C	IC50 [1, 4]: < 100 nM
CC(=O)Nc1ccc(/C(O)=C/C2=Nc3nc(C)ccc3C3=NCCN23)cn1 [Example 1-161]	> 300 °C	IC50 [1, 4]: 100 to 500 nM
Nc1ccc(C(=O)NC2=Nc3ccccc3C3=NCCN23)cc1.O=C(O)C(F)(F)F [Example 2-163]	232 °C (dec.)	IC50 [1, 3]: 100 to 500 nM
Cc1cc(Br)c2c(c1)C1=NCCN1C(/C=C(\O)c1ccc3[nH]cnc3c1)=N2 [Example 1-47]	> 285 °C	IC50 [1, 4]: 100 to 500 nM
N#Cc1ccc(/C(O)=C/C2=Nc3ccccc3C3=NCCN23)s1 [Example 1-177]	256 °C	IC50 [1, 4]: 500 to 2000 nM
CC(C)(C)OC(=O)N1CCCCC1C(=O)NC1=Nc2ccccc2C2=NCCN12 (stereo not shown) [Example 2-336]		IC50 [1, 2]: > 2000 nM
COc1cc2c(cc1OC)C1=NCCN1C(NC(=O)c1ccccc1)=N2 [Example 2-342]		IC50 [1, 2]: 500 to 2000 nM
CC(C)(C)OC(=O)N1CCC(C(=O)NC2=Nc3ccccc3C3=NCCN23)CC1 [Example 2-340]		IC50 [1, 2]: > 2000 nM
CCC(=O)NC1=Nc2ccccc2C2=NCCN12 [Example 2-327]		IC50 [1, 2]: > 2000 nM
CCNc1ccc(/C(O)=C/C2=Nc3cc(OC)c(OC)cc3C3=NCCN23)cn1 [Example 1-53]		IC50 [1, 4]: 100 to 500 nM
COc1cc2c(cc1OC)C1=NCCN1C(NC(=O)c1cccnc1)=N2 [Example 2-53]		IC50 [1, 3]: 100 to 500 nM
Cl.O/C(=C\C1=Nc2c(Br)cccc2C2=NCCN12)c1cccnc1 [Example 1-74]	246 °C	
Cl.O/C(=C\C1=Nc2cc(N3CCOCC3)ccc2C2=NCCN12)c1ccc2[nH]cnc2c1 [Example 1-101]	286 °C (dec.)	
CC(=O)Nc1ccc(/C(O)=C/C2=Nc3cc(CN4CCOCC4)ccc3C3=NCCN23)cn1.Cl [Example 1-114]	260 °C	
COc1cc2c(c(OC)c1C)N=C(/C=C(\O)c1ccc3[nH]cnc3c1)N1CCN=C21.Cl [Example 1-67]	> 285 °C	
O/C(=C\C1=Nc2cc(C(F)(F)F)ccc2C2=NCCN12)c1cccnc1 [Example 1-188]		IC50 [1, 4]: 500 to 2000 nM
Cl.O/C(=C\C1=Nc2ccccc2C2=NCCN12)c1csc2ccccc12 [Example 1-181]	> 300 °C	
COc1cc2c(c(OC)c1C)N=C(/C=C(\O)c1ccc(NC(C)=O)nc1)N1CCN=C21.Cl [Example 1-65]	> 285 °C	
Cl.O/C(=C\C1=Nc2ccccc2C2=NCCN12)c1cccnc1 [Example 1-135]	260 °C (dec.)	
COc1cc2c(cc1OC)C1=NCCN1C(/C=C(\O)c1ccc3[nH]cnc3c1)=N2 [Example 1-56]	212 to 215 °C	
Cl.O/C(=C\C1=Nc2ccccc2C2=NCCN12)c1cccs1 [Example 1-147]	> 300 °C	
O=C(NC1=Nc2ccccc2C2=NCCN12)c1ccc([N+](=O)[O-])cc1.O=C(O)C(F)(F)F [Example 2-255]	265 °C (dec.)	
Cl.O/C(=C\C1=Nc2ccccc2C2=NCCN12)c1ccco1 [Example 1-144]	> 300 °C	
COc1cc2c(cc1OC)C1=NCCN1C(/C=C(\O)c1cccnc1)=N2 (as salt: hydrochloride) [Example 1-2, (Z)-2-(8,9-Dimethoxy-2,3-dihydroimidazo[1,2-c]quinazolin-5-yl)-1-(3-pyridinyl)-ethenol hydrochloride]	> 300 °C	
Cc1ccc2c(c1)N=C(/C=C(\O)c1cccnc1)N1CCN=C21.Cl [Example 1-120]	> 330 °C	

Second part, led by results:

melting point	SMILES	also measured
111 to 112 °C	O=C(NC1=Nc2ccccc2C2=NCCN12)C1CCN(C(=O)OCc2ccccc2)CC1 [Example 2-341]	IC50 [1, 2]: > 2000 nM
195 to 196 °C	Cc1ccc(C(=O)NC2=Nc3ccccc3C3=NCCN23)cn1 [Example 2-147]	IC50 [1, 3]: < 100 nM
210 °C (dec.)	COc1ccc(C(=O)NC2=Nc3ccccc3C3=NCCN23)c(OC)n1.Cl [Example 2-287]	IC50 [1, 2]: 500 to 2000 nM
233 °C	O=C(NC1=Nc2cccc(Cl)c2C2=NCCN12)c1cccs1 [Example 2-358]	IC50 [1, 2]: > 2000 nM
259 °C (dec.)	COc1ccc(C(=O)NC2=Nc3ccccc3C3=NCCN23)c(OC)c1.Cl [Example 2-237]	IC50 [1, 2]: > 2000 nM
> 280 °C	Cl.O=C(NC1=Nc2c(Cl)cccc2C2=NCCN12)c1ccc2[nH]cnc2c1 [Example 2-106]	IC50 [1, 3]: 100 to 500 nM
246 to 248 °C	Cc1cc(C)cc(C(=O)NC2=Nc3ccccc3C3=NCCN23)c1 [Example 2-219]	IC50 [1, 2]: > 2000 nM
144 to 145 °C	COc1cccc2c1N=C(NC(=O)c1cnccc1C(F)(F)F)N1CCN=C21 [Example 2-121]	IC50 [1, 3]: 100 to 500 nM
226 to 228 °C	O=C(NC1=Nc2ccccc2C2=NCCN12)c1ccc(Cl)cc1 [Example 2-229]	IC50 [1, 2]: > 2000 nM
122 to 123 °C	O=C(Cc1cccs1)NC1=Nc2ccccc2C2=NCCN12 [Example 2-324]	IC50 [1, 2]: > 2000 nM
210 to 212 °C	O=C(NC1=Nc2ccccc2C2=NCCN12)c1ccc(F)cc1 [Example 2-225]	IC50 [1, 2]: > 2000 nM
233 to 234 °C	CSc1ncccc1C(=O)NC1=Nc2ccccc2C2=NCCN12 [Example 2-288]	IC50 [1, 2]: > 2000 nM
266 °C (dec.)	CN(C)c1cccc(C(=O)NC2=Nc3ccccc3C3=NCCN23)c1.Cl [Example 2-259]	
225 °C (dec.)	COc1cccc2c1N=C(NC(=O)c1cc3cccnc3nc1C(F)(F)F)N1CCN=C21.Cl [Example 2-129]	
271 to 272 °C	CCn1nc(C)cc1C(=O)NC1=Nc2ccccc2C2=NCCN12.Cl [Example 2-192]	
233 °C	COc1ccc2c(c1)N=C(NC(=O)c1ccc3[nH]cnc3c1)N1CCN=C21.Cl [Example 2-26]	
300 °C (dec.)	CNc1ccc(C(=O)NC2=Nc3ccccc3C3=NCCN23)cn1.Cl [Example 2-154]	
264 °C (dec.)	Cl.Cn1cccc1C(=O)NC1=Nc2ccccc2C2=NCCN12 [Example 2-297]	
296 to 297 °C	Cl.O=C(NC1=Nc2ccccc2C2=NCCN12)c1cncc(O)c1 [Example 2-139]	
296 °C (dec.)	Cl.O=C(NC1=Nc2ccccc2C2=NCCN12)c1csc([N+](=O)[O-])c1 [Example 2-306]	
311 °C (dec.)	Cc1cc(C(=O)NC2=Nc3ccccc3C3=NCCN23)cnc1N.Cl [Example 2-160]	
309 °C	Cl.O=C(NC1=Nc2ccc(Cl)cc2C2=NCCN12)c1cccnc1 [Example 2-85]	
310 °C (dec.)	Cc1ccc(C(=O)NC2=Nc3ccccc3C3=NCCN23)cn1.Cl [Example 2-148]	
288 °C (dec.)	COc1c(C)cc(C(=O)NC2=Nc3ccccc3C3=NCCN23)cc1C.Cl [Example 2-221]	
277 °C (dec.)	Cc1ncccc1C(=O)NC1=Nc2ccccc2C2=NCCN12.Cl [Example 2-132]	
309 °C (dec.)	Cl.O=C(NC1=Nc2ccccc2C2=NCCN12)c1ccc(-n2cccc2)cc1 [Example 2-267]	
